Laboratory results: ChEMBL document CHEMBL1201862, “PubChem BioAssay data set” (2004)
Active and inactive are the calls of the source.

Columns and labels:
[1] = Luminescent dose response cell-based high throughput screening assay for inhibitors of the Janus kinase 2 mutant JAK2V617F. [Related pubchem assays: 1446 (Primary screen.), 1521 (Confirmation assay.), 1486 (Counter screen.)]; format: functional
[2] = viability loss in HeLa cells – cytotoxicity control for MgcRacGAP inhibitor project, dose response (AID 624300); format: functional
[3] = Luminescence Cell-Based Dose Confirmation HTS to Identify Inhibitors of Platelet Dense Granule Release. [Related pubchem assays: 1663 (Primary HTS), 1678 (Summary of Project)]; format: functional
[4] = target: T1, Calpain-2 catalytic subunit (Sus scrofa, UniProt P43367); assay: m-calpain protease blockers, concentration series – biochemical, fluorogenic peptide substrate, dose response (AID 1420); format: functional
T1 sequence (P43367 whole entry): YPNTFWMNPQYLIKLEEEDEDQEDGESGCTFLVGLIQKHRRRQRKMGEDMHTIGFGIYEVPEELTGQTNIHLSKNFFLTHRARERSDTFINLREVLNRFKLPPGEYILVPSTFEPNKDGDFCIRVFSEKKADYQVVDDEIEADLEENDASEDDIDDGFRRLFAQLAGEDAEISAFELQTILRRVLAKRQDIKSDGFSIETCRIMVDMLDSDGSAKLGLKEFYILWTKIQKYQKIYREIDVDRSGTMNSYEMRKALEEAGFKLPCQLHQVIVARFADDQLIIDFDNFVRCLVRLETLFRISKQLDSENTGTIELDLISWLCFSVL

[5] = Luminescence Cell-Based Dose Response HTS to Identify Inhibitors of 5'UTR Stem-Loop Driven Prion Protein mRNA Translation in H4 Neuroglioblastoma Cells. [Related pubchem assays: 1827 (Project Summary), 1813 (Primary HTS)]; format: functional
[6] = target: T2, Replicative DNA helicase DnaB (Mycobacterium tuberculosis, UniProt P9WMR3); assay: DnaB intein splicing inhibitors, dose response, biochemical, cell-free fluorescence (AID 449749); format: functional
T2 sequence (P9WMR3 whole entry): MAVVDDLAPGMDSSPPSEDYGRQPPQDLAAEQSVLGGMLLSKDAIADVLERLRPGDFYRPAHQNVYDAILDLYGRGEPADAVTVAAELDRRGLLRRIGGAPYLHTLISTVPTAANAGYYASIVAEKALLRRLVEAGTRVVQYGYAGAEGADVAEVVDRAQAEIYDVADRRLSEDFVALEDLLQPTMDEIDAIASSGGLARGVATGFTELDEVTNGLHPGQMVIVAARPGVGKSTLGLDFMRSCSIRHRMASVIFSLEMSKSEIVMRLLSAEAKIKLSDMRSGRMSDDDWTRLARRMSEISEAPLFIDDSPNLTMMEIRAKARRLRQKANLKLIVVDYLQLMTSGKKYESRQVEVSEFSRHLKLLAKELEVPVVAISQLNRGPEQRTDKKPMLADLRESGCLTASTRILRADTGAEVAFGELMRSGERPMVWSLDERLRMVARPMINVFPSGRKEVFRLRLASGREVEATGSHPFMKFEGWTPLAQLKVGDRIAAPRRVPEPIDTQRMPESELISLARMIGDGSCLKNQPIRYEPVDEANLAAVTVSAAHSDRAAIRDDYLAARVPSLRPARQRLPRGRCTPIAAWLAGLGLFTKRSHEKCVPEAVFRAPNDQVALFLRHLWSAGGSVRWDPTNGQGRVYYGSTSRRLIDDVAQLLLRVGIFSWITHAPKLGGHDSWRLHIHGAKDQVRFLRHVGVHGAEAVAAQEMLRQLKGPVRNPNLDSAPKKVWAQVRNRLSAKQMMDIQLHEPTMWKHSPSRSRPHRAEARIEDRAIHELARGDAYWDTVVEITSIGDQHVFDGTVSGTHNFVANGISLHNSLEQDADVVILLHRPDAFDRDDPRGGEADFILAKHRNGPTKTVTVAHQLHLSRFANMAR

Protein RecA = target: T3, Protein RecA (Mycobacterium tuberculosis, UniProt P9WHJ3); assay: Fluorescence Cell-Free Homogeneous Dose Retest to Identify Inhibitors of RecA-Intein Splicing Activity. [Related pubchem assays (depositor defined):AID2097, AID2223, AID489010, AID492950]; format: functional
T3 sequence (P9WHJ3 whole entry): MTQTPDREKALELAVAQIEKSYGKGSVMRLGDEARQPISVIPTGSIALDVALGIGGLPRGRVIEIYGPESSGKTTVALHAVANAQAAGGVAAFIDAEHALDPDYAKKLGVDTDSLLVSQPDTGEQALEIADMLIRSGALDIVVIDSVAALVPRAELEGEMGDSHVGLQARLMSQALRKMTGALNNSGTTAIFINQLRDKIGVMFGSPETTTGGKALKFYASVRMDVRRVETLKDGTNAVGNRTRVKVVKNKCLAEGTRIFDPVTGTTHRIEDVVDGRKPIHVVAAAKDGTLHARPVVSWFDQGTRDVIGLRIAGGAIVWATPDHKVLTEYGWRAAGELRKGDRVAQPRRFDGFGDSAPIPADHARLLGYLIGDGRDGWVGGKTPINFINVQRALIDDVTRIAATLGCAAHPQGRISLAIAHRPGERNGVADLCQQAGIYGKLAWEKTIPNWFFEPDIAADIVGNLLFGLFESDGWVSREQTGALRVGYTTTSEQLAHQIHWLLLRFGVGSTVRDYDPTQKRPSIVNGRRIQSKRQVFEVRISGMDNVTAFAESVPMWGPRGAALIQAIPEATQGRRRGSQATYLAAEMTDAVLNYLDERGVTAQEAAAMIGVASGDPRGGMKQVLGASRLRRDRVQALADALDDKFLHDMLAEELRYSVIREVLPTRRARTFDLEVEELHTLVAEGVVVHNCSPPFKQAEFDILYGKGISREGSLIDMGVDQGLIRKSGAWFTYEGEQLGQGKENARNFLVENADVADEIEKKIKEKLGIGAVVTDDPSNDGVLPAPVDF

[7] = target: Luciferin 4-monooxygenase (Photinus pyralis, UniProt P08659); assay: inhibition of purified Photinus pyralis luciferase – biochemical, luminescence, dose response (AID 1891)
Sequence of Luciferin 4-monooxygenase (P08659 whole entry): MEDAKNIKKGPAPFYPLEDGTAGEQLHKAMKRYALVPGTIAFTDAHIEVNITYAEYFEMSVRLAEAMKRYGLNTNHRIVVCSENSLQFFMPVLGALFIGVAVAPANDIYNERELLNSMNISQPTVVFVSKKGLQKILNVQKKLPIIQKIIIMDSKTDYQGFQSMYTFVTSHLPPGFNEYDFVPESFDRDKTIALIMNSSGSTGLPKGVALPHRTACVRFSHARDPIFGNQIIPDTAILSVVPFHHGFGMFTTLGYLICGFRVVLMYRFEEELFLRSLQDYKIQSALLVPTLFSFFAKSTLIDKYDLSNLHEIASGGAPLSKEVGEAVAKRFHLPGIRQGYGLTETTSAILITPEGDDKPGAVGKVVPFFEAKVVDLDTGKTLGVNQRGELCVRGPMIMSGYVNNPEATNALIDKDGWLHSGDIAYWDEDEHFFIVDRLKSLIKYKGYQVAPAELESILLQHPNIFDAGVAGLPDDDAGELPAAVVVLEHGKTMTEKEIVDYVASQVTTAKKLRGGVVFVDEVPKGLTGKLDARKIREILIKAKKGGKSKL

INS1 = assay: INS-1E survival protection against cytokine death – cell-based, luminescence, retest, dose response (AID 449756); format: functional; conditions: Rattus norvegicus;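 also: cell death triggered by IL-1 beta plus TNF-alpha plus IFN-gamma mixture; protective hits raise ATP signal compared with cytokine alone wells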
[8] = target: T4, Rac GTPase-activating protein 1 (Homo sapiens, UniProt Q9H0H5); assay: blockers of MgcRacGAP-driven Rac1 GTP hydrolysis – biochemical, ADP Hunter fluorescence, primary and confirmatory, confirmation (AID 624330); format: functional
T4 sequence (Q9H0H5 whole entry): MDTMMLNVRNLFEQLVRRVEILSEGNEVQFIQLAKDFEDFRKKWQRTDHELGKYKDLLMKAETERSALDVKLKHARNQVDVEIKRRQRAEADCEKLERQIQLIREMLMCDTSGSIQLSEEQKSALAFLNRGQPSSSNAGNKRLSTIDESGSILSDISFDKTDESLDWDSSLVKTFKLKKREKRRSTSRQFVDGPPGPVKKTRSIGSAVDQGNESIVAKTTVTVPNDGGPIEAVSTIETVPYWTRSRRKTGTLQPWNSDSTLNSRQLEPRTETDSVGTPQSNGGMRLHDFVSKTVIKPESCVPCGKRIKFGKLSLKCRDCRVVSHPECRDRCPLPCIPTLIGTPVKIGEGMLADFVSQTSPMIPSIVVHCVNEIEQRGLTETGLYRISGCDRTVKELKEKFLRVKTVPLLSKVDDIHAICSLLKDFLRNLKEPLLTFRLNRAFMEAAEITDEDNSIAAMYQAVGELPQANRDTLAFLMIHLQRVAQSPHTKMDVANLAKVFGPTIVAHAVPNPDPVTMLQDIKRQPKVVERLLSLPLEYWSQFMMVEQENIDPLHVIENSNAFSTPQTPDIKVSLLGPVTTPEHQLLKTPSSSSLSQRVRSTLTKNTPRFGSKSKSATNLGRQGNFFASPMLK

Cytochrome P450 2C19 = Cytochrome P450 2C19 (Homo sapiens, UniProt P33261); assay: qHTS Assay for Inhibitors and Substrates of Cytochrome P450 2C19. [Related pubchem assays: 410 ]; format: ADME; conditions: read-out: Potency
Sequence of Cytochrome P450 2C19 (P33261 whole entry): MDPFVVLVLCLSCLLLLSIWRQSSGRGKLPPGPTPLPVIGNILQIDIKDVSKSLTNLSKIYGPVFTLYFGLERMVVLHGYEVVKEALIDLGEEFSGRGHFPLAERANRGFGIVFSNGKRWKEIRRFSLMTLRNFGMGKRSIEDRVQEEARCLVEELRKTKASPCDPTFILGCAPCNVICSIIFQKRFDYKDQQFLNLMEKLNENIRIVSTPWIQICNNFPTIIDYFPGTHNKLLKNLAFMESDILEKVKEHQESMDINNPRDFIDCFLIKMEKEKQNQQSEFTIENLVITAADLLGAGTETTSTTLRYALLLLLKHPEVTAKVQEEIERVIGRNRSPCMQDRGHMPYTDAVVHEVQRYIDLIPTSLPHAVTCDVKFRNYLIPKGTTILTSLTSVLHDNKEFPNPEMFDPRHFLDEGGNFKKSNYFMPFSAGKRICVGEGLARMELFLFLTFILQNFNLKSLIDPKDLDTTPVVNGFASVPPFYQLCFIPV

Cytochrome P450 3A4 = Cytochrome P450 3A4 (Homo sapiens, UniProt P08684); conditions: Potency;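 also: confirmatory qHTS run detecting inhibitors and substrates of CYP3A4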
Sequence of Cytochrome P450 3A4 (P08684 whole entry): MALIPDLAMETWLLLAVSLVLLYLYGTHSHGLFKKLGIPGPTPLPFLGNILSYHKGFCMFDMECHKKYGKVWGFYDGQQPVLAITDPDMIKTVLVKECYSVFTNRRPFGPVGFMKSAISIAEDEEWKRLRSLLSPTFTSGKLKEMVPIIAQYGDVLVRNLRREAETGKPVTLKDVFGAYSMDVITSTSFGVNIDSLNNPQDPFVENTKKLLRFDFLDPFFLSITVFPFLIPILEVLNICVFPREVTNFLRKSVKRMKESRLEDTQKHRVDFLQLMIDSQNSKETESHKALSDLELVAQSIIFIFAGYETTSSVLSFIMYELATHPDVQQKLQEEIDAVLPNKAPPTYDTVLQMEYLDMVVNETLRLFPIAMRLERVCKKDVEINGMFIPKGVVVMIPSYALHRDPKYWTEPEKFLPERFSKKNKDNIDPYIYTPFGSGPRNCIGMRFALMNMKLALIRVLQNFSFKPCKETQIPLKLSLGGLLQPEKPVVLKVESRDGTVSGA

[9] = target: FAD-linked sulfhydryl oxidase ALR (Homo sapiens, UniProt P55789); assay: ALR-catalysed DTT oxidation blockers – biochemical, H2O2 detection, luminescence, cherry-pick, dose response (AID 493248)
Sequence of FAD-linked sulfhydryl oxidase ALR (P55789 whole entry, the tested form may be a part): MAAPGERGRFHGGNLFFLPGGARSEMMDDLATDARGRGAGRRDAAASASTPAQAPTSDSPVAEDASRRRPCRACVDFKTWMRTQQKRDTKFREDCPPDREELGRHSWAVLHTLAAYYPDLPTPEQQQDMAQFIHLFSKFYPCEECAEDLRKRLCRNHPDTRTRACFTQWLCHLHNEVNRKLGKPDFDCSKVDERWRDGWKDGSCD

[10] = CCR5-tropic HIV-1 fusion blockers – cell-based, CCR5-tropic Env, dose response (AID 2279); format: functional
[11] = target: Heat shock protein HSP 90-alpha (Homo sapiens, UniProt P07900); assay: Luminescence-based dose response biochemical high throughput screening assay for inhibitors of the Heat Shock Protein 90 (HSP90). [Related pubchem assays: 1831 (Summary AID.), 1846 (Confirmation screen.), 1789 (Primary screen.)]
[12] = target: DNA damage-inducible transcript 3 protein (Mus musculus, UniProt P35639); format: functional, Cricetulus griseus
Sequence of DNA damage-inducible transcript 3 protein (P35639 whole entry): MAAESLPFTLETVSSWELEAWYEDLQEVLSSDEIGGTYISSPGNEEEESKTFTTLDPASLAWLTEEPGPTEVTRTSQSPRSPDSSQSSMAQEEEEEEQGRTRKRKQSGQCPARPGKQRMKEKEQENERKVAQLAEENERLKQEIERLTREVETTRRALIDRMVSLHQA

[13] = M. tuberculosis growth inhibition, HTS (AID 449762); format: functional
[14] = microbe, parasite or virus in culture; format: functional; conditions: Mycobacterium tuberculosis

SMILES: O=C1/C(=N\c2ccc(O)cc2)C=C(O)c2ccccc21
- IC50 [1]: 2.02 µM (active)
- CC50 [2]: 100 µM (active)
- EC50 [3]: 4.34 µM (active)
- IC50 [4]: 5.1 µM (not active)
- EC50 [5]: > 120 µM (not active)
- AC50 [6]: 3.88 µM (active)
- EC50 (Protein RecA): 3.57 µM (active)
- EC50 [7]: 3.81 µM (active)
- AC50 (INS1): 6.8 µM (active)
- IC50 [8]: 23.7 µM (active)

SMILES: COC(=O)NC(c1ccccc1)C(C(=O)OC)C(=O)OC (stereo not drawn)
- AC50 (Cytochrome P450 2C19): 5.01 µM (inconclusive)
- AC50 (Cytochrome P450 3A4): 3.16 µM (inconclusive)

SMILES: COc1cc(/C=N/Nc2ccc(Cl)c(C(=O)O)c2)ccc1OC(=O)c1ccccc1F
- AC50 [9]: 5.62 µM (active)
- IC50 [10]: 4.45 µM (active)
- IC50 [11]: 1.06 µM (active)

SMILES: CCOc1ccc(/C=C/C2=Cc3c(sc(NC(=O)CSc4n[nH]c(N)n4)c3C#N)C(C)(C)C2)cc1
- Absolute IC50 (CHOP) [12]: < 10 µM
- IC50 [13]: > 100 µM (active)
- CC50 [14]: 8.74 µM (active)
